Laboratory results as given in ChEMBL document CHEMBL1129550, “Synthesis and cyclic GMP phosphodiesterase inhibitory activity of a series of 6-phenylpyrazolo[3,4-d]pyrimidones” (J Med Chem, 1996).

How the values were obtained:
[1] = target: T1, cGMP-specific 3',5'-cyclic phosphodiesterase (Homo sapiens, UniProt O76074); test: Inhibition of Phosphodiesterase 5 from human
[2] = target: cGMP-specific 3',5'-cyclic phosphodiesterase (Rattus norvegicus, UniProt O54735); test: Compound was tested for inhibition of stimulation of rat aortic smooth muscle cells (RSMC); format: functional
[3] = target: T1, cGMP-specific 3',5'-cyclic phosphodiesterase; test: Inhibition of Phosphodiesterase 5 from human at dose 10 uM

CCCOc1ccccc1-c1nc(O)c2scc(C)c2n1
IC50 [1]: 0.08 µM | EC50 [2]: 1.5 µM

CCCOc1ccc(N(C)C)cc1-c1nc2c(c(C)nn2C)c(=O)[nH]1
IC50 [1]: 0.005 µM | EC50 [2]: 0.3 µM

CCCOc1ccc(NC(=S)NCC)cc1-c1nc2c(c(C)nn2C)c(=O)[nH]1
IC50 [1]: 0.003 µM | EC50 [2]: 0.06 µM

CCCOc1ccc([N+](=O)[O-])cc1-c1nc2c(c(C)nn2CC)c(=O)[nH]1
IC50 [1]: 0.0001 µM | EC50 [2]: 0.05 µM

CCCOc1ccc(-c2csc(-c3ccccc3)n2)cc1-c1nc2c(c(C)nn2CC)c(=O)[nH]1
IC50 [1]: 0.003 µM | EC50 [2]: 0.2 µM

CCCOc1ccc(N)cc1-c1nc2c(c(C)nn2C)c(=O)[nH]1
IC50 [1]: 0.01 µM | EC50 [2]: 0.3 µM

CCCOc1ccc(-c2nccs2)cc1-c1nc2c(c(C)nn2C)c(=O)[nH]1
IC50 [1]: 0.003 µM | EC50 [2]: < 0.1 µM

Cc1nn(C)c2nc(-c3ccccc3OC(C)C)[nH]c(=O)c12
IC50 [1]: 0.04 µM | EC50 [2]: 1 µM

CCCOc1ccccc1-c1nc2nc[nH]c2c(=O)[nH]1
EC50 [2]: 2 µM

CCCOc1ccc(-c2ccc(C)s2)cc1-c1nc2c(c(C)nn2C)c(=O)[nH]1
IC50 [1]: 0.004 µM | EC50 [2]: < 0.1 µM

CCCOc1ccc(Nc2nnc(N)[nH]2)cc1-c1nc2c(c(C)nn2C)c(=O)[nH]1
IC50 [1]: 0.005 µM | EC50 [2]: > 10 µM

CCCCn1nc(C)c2c(=O)[nH]c(-c3ccccc3OCCC)nc21
IC50 [1]: 0.006 µM | EC50 [2]: 0.9 µM

CCCOc1ccc(-c2n[nH]c(-c3ccccc3)n2)cc1-c1nc2c(c(C)nn2CC)c(=O)[nH]1
IC50 [1]: 0.0017 µM | EC50 [2]: < 0.01 µM

CCC[S+]([O-])c1ccccc1-c1nc2c(c(C)nn2C)c(=O)[nH]1 (stereo unspecified)
inhibition [3]: 59%

CCCOc1ccc(-c2csc(-c3ccccc3)n2)cc1-c1nc2c(c(C)nn2C)c(=O)[nH]1
IC50 [1]: 0.0025 µM | EC50 [2]: 0.2 µM

CCCOc1ccc(N)cc1-c1nc2c(c(C)nn2CC)c(=O)[nH]1
IC50 [1]: 0.007 µM | EC50 [2]: 0.02 µM

CCCOc1ccccc1-c1nc(O)c2ccsc2n1
IC50 [1]: 0.1 µM | EC50 [2]: 2.5 µM

CCCOc1ccccc1-c1nc(O)c2c(C)csc2n1
IC50 [1]: 0.06 µM | EC50 [2]: 0.7 µM

CCCOc1ccccc1-c1nc2c(c(C)nn2CC)c(=O)[nH]1
IC50 [1]: 0.002 µM | EC50 [2]: < 0.1 µM

CCCOc1ccc(-c2csc(-c3cccnc3)n2)cc1-c1nc2c(c(C)nn2CC)c(=O)[nH]1
IC50 [1]: 0.002 µM | EC50 [2]: < 0.1 µM

CCCOc1ccc(-c2csc(C)n2)cc1-c1nc2c(c(C)nn2CC)c(=O)[nH]1
EC50 [2]: < 0.1 µM

CCCOc1ccc(N(C)C)cc1-c1nc2c(c(C)nn2CC)c(=O)[nH]1
IC50 [1]: 0.004 µM | EC50 [2]: 1.5 µM

CCCOc1ccc(NC(C)=O)cc1-c1nc2c(c(C)nn2C)c(=O)[nH]1
IC50 [1]: 0.0008 µM | EC50 [2]: 0.04 µM

CCCOc1ccc(NC(=O)c2cccs2)cc1-c1nc2c(c(C)nn2C)c(=O)[nH]1
IC50 [1]: 0.0015 µM | EC50 [2]: < 0.01 µM

CCCOc1ccc(NC(=O)Nc2ccc(F)cc2)cc1-c1nc2c(c(C)nn2C)c(=O)[nH]1
IC50 [1]: 0.0002 µM | EC50 [2]: 0.04 µM

CCCOc1ccc(-c2csc(C)n2)cc1-c1nc2c(c(C)nn2C)c(=O)[nH]1
IC50 [1]: 0.0025 µM | EC50 [2]: 0.2 µM

CCCOc1ccccc1-c1nc2c(c(C)nn2CC(F)(F)F)c(=O)[nH]1
IC50 [1]: 0.007 µM | EC50 [2]: 1.5 µM

CCCOc1ccccc1-c1nc(O)c2c(C)snc2n1
IC50 [1]: 0.03 µM | EC50 [2]: 1.5 µM

CCCOc1ccc(NC(=O)OC)cc1-c1nc2c(c(C)nn2C)c(=O)[nH]1
IC50 [1]: 0.002 µM | EC50 [2]: 0.1 µM

CCCOc1ccccc1-c1nc(O)c2c[nH]nc2n1
IC50 [1]: 0.15 µM | EC50 [2]: > 10 µM

CCCOc1ccc(NC(=O)NCC)cc1-c1nc2c(c(C)nn2C)c(=O)[nH]1
IC50 [1]: 0.003 µM | EC50 [2]: 0.05 µM

CCCOc1ccc(NC(C)=O)cc1-c1nc2c(c(C)nn2CC)c(=O)[nH]1
IC50 [1]: 0.002 µM | EC50 [2]: 0.03 µM

CCCOc1ccccc1-c1nc2ccncc2c(=O)[nH]1
IC50 [1]: 0.05 µM | EC50 [2]: 10 µM

CCCOc1ccc(-c2cccs2)cc1-c1nc2c(c(C)nn2C)c(=O)[nH]1
IC50 [1]: 0.005 µM | EC50 [2]: 0.3 µM

CCCOc1ccccc1-c1nc2c(c(C)nn2CCC)c(=O)[nH]1
IC50 [1]: 0.001 µM | EC50 [2]: 0.15 µM

CCCOc1ccc(NS(C)(=O)=O)cc1-c1nc2c(c(C)nn2CC)c(=O)[nH]1
IC50 [1]: 0.004 µM | EC50 [2]: 0.2 µM

CCOc1ccccc1-c1nc2c(c(C)nn2C)c(=O)[nH]1
IC50 [1]: 0.03 µM | EC50 [2]: 2 µM

CCCOc1ccc(-c2nc(C)cs2)cc1-c1nc2c(c(C)nn2C)c(=O)[nH]1
IC50 [1]: 0.0025 µM | EC50 [2]: 0.45 µM

CCCOc1ccc(-c2n[nH]c(-c3ccccc3)n2)cc1-c1nc2c(c(C)nn2C)c(=O)[nH]1
IC50 [1]: 0.02 µM | EC50 [2]: < 0.1 µM

CCCOc1ccccc1-c1nc2onc(C)c2c(=O)[nH]1
IC50 [1]: 0.1 µM | EC50 [2]: > 10 µM

CCCOc1ccc(C(=O)CN2CCOCC2)cc1-c1nc2c(c(C)nn2C)c(=O)[nH]1
IC50 [1]: 0.004 µM | EC50 [2]: 0.3 µM

CCCOc1ccc(NC(N)=O)cc1-c1nc2c(c(C)nn2C)c(=O)[nH]1
IC50 [1]: 0.002 µM | EC50 [2]: 0.9 µM

CCCOc1ccccc1-c1nc2c(c(C)nn2C)c(=O)[nH]1
EC50 [2]: 0.2 µM

CCCOc1ccc(NS(C)(=O)=O)cc1-c1nc2c(c(C)nn2C)c(=O)[nH]1
IC50 [1]: 0.003 µM | EC50 [2]: 0.35 µM

CCCOc1ccccc1-c1nc2cnccc2c(=O)[nH]1
IC50 [1]: 0.07 µM | EC50 [2]: 2 µM

CCCOc1ccccc1-c1nc2ncncc2c(=O)[nH]1
IC50 [1]: 0.3 µM | EC50 [2]: 7.5 µM

CCCOc1ccc(NC(=O)CN2CCN(C)CC2)cc1-c1nc2c(c(C)nn2C)c(=O)[nH]1
IC50 [1]: 0.0035 µM | EC50 [2]: 0.4 µM

CCCOc1ccc(NC(=S)NC(=O)OCC)cc1-c1nc2c(c(C)nn2C)c(=O)[nH]1
IC50 [1]: 0.002 µM | EC50 [2]: 0.04 µM

CCCOc1ccc(-c2nc(C)cs2)cc1-c1nc2c(c(C)nn2CC)c(=O)[nH]1
IC50 [1]: 0.002 µM | EC50 [2]: < 0.1 µM

CCCOc1ccccc1-c1nc(O)c2sccc2n1
IC50 [1]: 0.05 µM | EC50 [2]: 1 µM

CCCOc1ccc(NC(=O)c2ccc(F)cc2)cc1-c1nc2c(c(C)nn2C)c(=O)[nH]1
IC50 [1]: 0.002 µM | EC50 [2]: < 0.01 µM

CCCOc1ccc([N+](=O)[O-])cc1-c1nc2c(c(C)nn2C)c(=O)[nH]1
IC50 [1]: 0.004 µM | EC50 [2]: 0.1 µM

CCCOc1ccc(NC(N)=S)cc1-c1nc2c(c(C)nn2C)c(=O)[nH]1
IC50 [1]: 0.001 µM | EC50 [2]: 1 µM

CCCOc1ccccc1-c1nc2c(c(C)nn2Cc2ccccc2)c(=O)[nH]1
IC50 [1]: 0.07 µM | EC50 [2]: 0.35 µM

CCCOc1ccccc1-c1nc2c(c(C)nn2C(C)(C)C)c(=O)[nH]1
IC50 [1]: 0.02 µM | EC50 [2]: 0.2 µM
